Data taken from PMC5799307, “Creation of a long-acting nanoformulated dolutegravir” (Nature Communications, 2018).

Legend:
[1] = Blood and tissue DTG levels and animal weights in hu-PBL-NSG mice; assay type: in vivo; settings: NOD/scid-IL-2Rγc^null (NSG), mouse, intramuscular, 45 mg/kg DTG-eq.; kidney, day 39; read-out: tissue DTG level
Experimental: NOD/scid-IL-2Rγc^null (NSG) mice (6–7 weeks of age; Jackson Labs, Bar Harbor, ME) were administered a single IM injection in a volume of 40 µL/25 g mouse of NDTG or NMDTG at a concentration of 45 mg/kg DTG-eq. on day 0 for measures of relative viral restriction. Mice were then reconstituted with 25 × 10^6 human peripheral blood lymphocytes (hu-PBL) per mouse 4 or 19 days post drug treatment by IP injection. Next, mice were challenged 10 days post hu-PBL reconstitution with HIV-1ADA at 14 or 29 days post drug treatment by IP injection at a TCID50 of 2 × 10^4 per mouse. […] Plasma was saved for viral load (HIV-1 RNA) quantitation using the Roche Amplicor and Taqman-48 system [HIV-1 kit V2.0 according to the manufacturer’s instructions (Indianapolis, IN)]. Blood and tissue drug concentrations were determined by UPLC-MS/MS as described above. […] The number of HIV-1p24+ and HLA-DP/DQ/DR+ cells per section were counted and expressed as percentage of HIV-1p24+ cells/HLA-DP/DQ/DR+ cells per section. […] Plasma was used for quantitative viral load (measurements of HIV-1 RNA) using the Roche Amplicor and Taqman-48 system. Blood and tissue drug concentrations were determined by UPLC-MS/MS as described above. […]

[2] = test system: HIV-1; parameters: method as in PMID 21115794; settings: cited from earlier work

Compound: C[C@@H]1CCO[C@H]2Cn3cc(C(=O)NCc4ccc(F)cc4F)c(=O)c(O)c3C(=O)N12 [DTG, dolutegravir]
- concentration at 39 days [1]: 4.1 ng/g
- protein-adjusted inhibitory concentration90 (PA-IC90) [2]: 0.064 µg/mL
